Laboratory results from ChEMBL document CHEMBL4739717, “Methods of treating cartilage disorders through inhibition of clk and dyrk” (2020).
Active and inactive are the calls of the source. The calls are words filed in the database; no cut-off is given here.

What was measured:
[1] = Induction of chondrogenesis in human MSC assessed as incubated for 6 days by rhodamine B and Nile red staining based imaging analysis; format: functional; details: bmmsc
Chondrocyte [2] = assay: Inhibition of IL1-beta induced MMP-13 expression levels in human chondrocytes assessed as MMP-13 levels incubated for 2hrs followed by IL1-beta stimulation and measured after 24 hrs by qRT-PCR analysis; format: functional; details: time 26.0 hrs
[3] = target: Dual specificity tyrosine-phosphorylation-regulated kinase 1A (Homo sapiens, UniProt Q13627); assay: Inhibition of recombinant DYRK1A (unknown origin) using Ser/Thr 18 peptide as substrate incubated for 1 hr in presence of ATP by FRET assay
[4] = Effect on Wnt signaling pathway in human SW480 cells harbouring TCF/LEF luciferase reporter gene and SP5-Luc reporter gene incubated for 36 to 48 hrs by luminescence assay; format: cell-based
Chondrocyte [5] = assay: Inhibition of IL1-beta induced MMP3 expression levels in human chondrocytes assessed as MMP3 levels incubated for 2hrs followed by IL1-beta stimulation and measured after 24 hrs by qRT-PCR analysis; format: functional; details: time 26.0 hrs
[6] = Inhibition of IL1-beta induced MMP3 expression levels in human chondrocytes assessed as MMP3 levels incubated for 2hrs followed by IL1-beta stimulation and measured after overnight incubation by LANCE assay; format: functional, cell-based; details: Chondrocyte
[7] = Induction of chondrogenesis in human MSC assessed as maximum activity at 10 nM incubated for 6 days by rhodamine B and Nile red staining based imaging analysis relative to control; format: functional; details: BMMSC, 144 h, time 6 day
[8] = Induction of chondrogenesis in human MSC assessed as maximum activity at 20.58 nM incubated for 6 days by rhodamine B and Nile red staining based imaging analysis relative to control; format: functional; details: BMMSC, 144 h, time 6 day
[9] = Induction of chondrogenesis in human MSC assessed as maximum activity at 100 nM incubated for 6 days by rhodamine B and Nile red staining based imaging analysis relative to control; format: functional; details: BMMSC, 144 h, time 6 day
Chondrocyte [10] = assay: Inhibition of IL1-beta induced MMP1 expression levels in human chondrocytes assessed as MMP1 levels incubated for 2hrs followed by IL1-beta stimulation and measured after 24 hrs by qRT-PCR analysis; format: functional; details: time 26.0 hrs
[11] = Induction of chondrogenesis in human MSC assessed as maximum activity at 2700 nM incubated for 6 days by rhodamine B and Nile red staining based imaging analysis relative to control; format: functional; details: BMMSC, 144 h, time 6 day
[12] = Induction of chondrogenesis in human MSC assessed as maximum activity at 30 nM incubated for 6 days by rhodamine B and Nile red staining based imaging analysis relative to control; format: functional; details: BMMSC, 144 h, time 6 day
[13] = Inhibition of IL1-beta induced MMP3 expression levels in human chondrocytes assessed as MMP3 levels incubated for 2hrs followed by IL1-beta stimulation and measured after overnight incubation by LANCE assay relative to control; format: functional, Chondrocyte
[14] = target: Dual specificity protein kinase CLK3 (Homo sapiens, UniProt P49761); assay: Inhibition of recombinant CLK3 (unknown origin) using Ser/Thr 18 peptide as substrate incubated for 1 hr in presence of ATP by FRET assay
[15] = target: Dual specificity protein kinase CLK2 (Homo sapiens, UniProt P49760); assay: Inhibition of recombinant CLK2 (unknown origin) using Ser/Thr 6 peptide as substrate incubated for 1 hr in presence of ATP by FRET assay
[16] = Induction of chondrogenesis in human MSC assessed as maximum activity at 61.73 nM incubated for 6 days by rhodamine B and Nile red staining based imaging analysis relative to control; format: functional; details: BMMSC, 144 h, time 6 day

Sequence of Dual specificity protein kinase CLK2 (P49760 whole entry): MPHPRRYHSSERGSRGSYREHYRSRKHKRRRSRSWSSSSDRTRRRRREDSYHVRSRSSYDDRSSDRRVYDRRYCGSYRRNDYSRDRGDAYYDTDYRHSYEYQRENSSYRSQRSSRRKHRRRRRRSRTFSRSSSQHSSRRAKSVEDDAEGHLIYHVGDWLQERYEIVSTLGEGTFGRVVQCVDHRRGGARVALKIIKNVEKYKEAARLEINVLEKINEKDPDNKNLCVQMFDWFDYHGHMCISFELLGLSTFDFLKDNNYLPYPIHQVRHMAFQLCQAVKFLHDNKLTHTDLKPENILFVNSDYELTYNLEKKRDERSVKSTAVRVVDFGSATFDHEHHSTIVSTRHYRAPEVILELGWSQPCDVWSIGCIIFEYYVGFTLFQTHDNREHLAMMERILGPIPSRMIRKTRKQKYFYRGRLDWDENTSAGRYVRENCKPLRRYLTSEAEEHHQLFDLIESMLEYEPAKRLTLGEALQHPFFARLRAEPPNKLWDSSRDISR
Sequence of Dual specificity protein kinase CLK3 (P49761 whole entry): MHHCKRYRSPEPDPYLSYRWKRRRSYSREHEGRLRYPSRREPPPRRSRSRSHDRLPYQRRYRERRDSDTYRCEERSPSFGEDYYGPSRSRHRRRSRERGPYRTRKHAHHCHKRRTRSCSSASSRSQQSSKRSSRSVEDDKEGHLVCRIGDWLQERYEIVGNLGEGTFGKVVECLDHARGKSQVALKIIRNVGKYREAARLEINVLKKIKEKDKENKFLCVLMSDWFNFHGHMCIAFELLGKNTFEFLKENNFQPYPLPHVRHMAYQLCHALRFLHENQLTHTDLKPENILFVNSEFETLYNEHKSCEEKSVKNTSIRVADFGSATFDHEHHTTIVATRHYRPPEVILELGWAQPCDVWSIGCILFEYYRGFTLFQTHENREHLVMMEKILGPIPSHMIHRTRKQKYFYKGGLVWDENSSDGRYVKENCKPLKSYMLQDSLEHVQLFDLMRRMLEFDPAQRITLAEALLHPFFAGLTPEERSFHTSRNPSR

Row | Compound | EC50 [1] [µM] | EC50 [3] [µM] | EC50 [4] [µM] | EC50 [6] [µM] | Emax at 2.7 µM [11] [%] | further results
1 | CN1CCCn2cc(nn2)-c2nccc3[nH]c(nc23)-c2n[nH]c3ccc(cc23)-c2cncc(c2)C1 | 0.01 | 0.004 | 0.338 | 3.78 | – | Activity (Chondrocyte [2]): inactive; Activity (Chondrocyte [5]): inactive; Emax at 0.01 µM [7]: 181%
2 | Oc1cncc(-c2ccc3[nH]nc(-c4nc5c(-c6cccc(F)c6)cncc5[nH]4)c3n2)c1 | 0.0206 | 0.031 | > 10 | – | – | Emax at 0.02058 µM [8]: 53.6%
3 | Cn1cc(-c2cc3c(C(=O)Nc4ccc(CN5CCCC5)cc4)n[nH]c3cc2F)cn1 | – | 0.001 | 0.242 | 3 | – | Emax at 0.1 µM [9]: 27.4%; Activity (Chondrocyte [10]): inactive; Activity (Chondrocyte [5]): inactive
4 | O=C(Nc1ccc(CN2CCCC2)cc1)c1n[nH]cc1/C=C/c1cccnc1 | 0.9 | 0.004 | 0.988 | 0.0037 | 194 | –
5 | O=C1CCc2cccc(c2)-c2cncc(c2)NC(=O)c2n[nH]c3ccc(cc23)-c2cncc(c2)CN1 | 0.03 | – | > 10 | 0.01 | – | Emax at 0.03 µM [12]: 69.4%; Activity (Chondrocyte [10]): inactive; Activity (Chondrocyte [2]): inactive; Activity (Chondrocyte [5]): inactive
6 | O=C(Nc1cncc(-c2ccc3[nH]nc(-c4cc5cnccc5[nH]4)c3c2)c1)C1CCCCC1 | 0.03 | 0.002 | 0.285 | 0.0067 | 155 | Imax [13]: 100%
7 | Cc1n[nH]c2ccc(-c3cncc(N[C@H]4CCNC[C@@H]4F)n3)cc12 | – | 0.001 | 0.0843 | – | – | EC50 [14]: 0.424 µM; Emax at 0.03 µM [12]: 25.6%; Activity (Chondrocyte [10]): inactive; Activity (Chondrocyte [2]): inactive; Activity (Chondrocyte [5]): inactive; EC50 [15]: 0.001 µM
8 | CCC(=O)Nc1cncc(-c2ccc3[nH]nc(-c4nc5c(N6CCCCC6)ccnc5[nH]4)c3n2)c1 | – | 0.09 | > 10 | – | – | Emax at 0.02058 µM [8]: 38.3%
9 | Fc1cccc(-c2cncc3[nH]c(-c4n[nH]c5ccc(-c6cn[nH]c6)nc45)nc23)c1 | 0.0206 | 0.016 | > 10 | – | – | EC50 [14]: > 10 µM; Emax at 0.02058 µM [8]: 51.8%
10 | CN1CCN(c2nccc3[nH]c(-c4n[nH]cc4/C=C/c4cncc(F)c4)nc23)CC1 | – | 0.01 | 0.325 | 3 | – | Activity (Chondrocyte [2]): inactive; Activity (Chondrocyte [5]): inactive; Emax at 0.01 µM [7]: 39%
11 | CN1CCN(c2cc(C(=O)Nc3cc4cc(-c5cnn(C)c5)ccc4cn3)ccn2)CC1 | – | – | – | – | – | Activity (Chondrocyte [2]): inactive; Emax at 0.01 µM [7]: 27.1%
12 | Cc1n[nH]c2ccc(-c3cncc(OC[C@H](N)Cc4ccccc4)n3)cc12 | 0.03 | 0.004 | 0.256 | – | – | Emax at 0.1 µM [9]: 52.1%; Activity (Chondrocyte [10]): inactive; Activity (Chondrocyte [2]): inactive; Activity (Chondrocyte [5]): inactive
13 | CC(C)NC(=O)c1n[nH]c2ccc(-c3cncc(CN4CCC(F)(F)CC4)c3)cc12 | 2.7 | – | 0.0471 | 0.008 | 104 | –
14 | CCC(=O)Nc1cncc(-c2ccc3[nH]nc(-c4nc5c(-c6cccc(F)c6)ccnc5[nH]4)c3n2)c1 | – | 0.036 | > 10 | – | – | Emax at 0.06173 µM [16]: 29.3%
15 | O=C(Nc1cc2cc(-c3cncc(N[C@H]4CCNC[C@@H]4F)n3)ccc2cn1)C1CC1 | 2.7 | – | 0.0095 | 3 | 68 | EC50 [14]: 0.011 µM; EC50 [15]: 0.001 µM
16 | Fc1cccc(-c2cccc3[nH]c(-c4n[nH]cc4/C=C/c4cncc(CN5CCCC5)c4)nc23)c1 | 2.7 | 0.02 | 0.0821 | 0.0014 | 81.7 | Activity (Chondrocyte [10]): inactive; Activity (Chondrocyte [5]): inactive
17 | CCNCc1cncc(-c2ccc3[nH]nc(-c4nc5c(-c6cc(F)cc(NCCN(C)C)c6)nccc5[nH]4)c3n2)c1 | – | 0.012 | > 10 | – | – | Emax at 0.06173 µM [16]: 35.6%
18 | CC(C)Nc1cncc(-c2ccc3[nH]nc(-c4nc5c(-c6cc(F)cc(NCCN(C)C)c6)cncc5[nH]4)c3n2)c1 | 0.3 | 0.009 | 1.66 | 3 | 96.8 | –
19 | Cn1cncc1-c1ccc2cnc(NC(=O)c3ccc(F)cc3)cc2c1 | – | – | – | 3 | 24.9 | –
20 | Cc1cn(-c2cncc3[nH]c(-c4n[nH]c5ccc(-c6cncc(NC(=O)C(C)(C)C)c6)nc45)nc23)cn1 | 0.1 | 0.002 | > 10 | 1.15 | 150 | –
21 | CN1CCN(c2cc(Nc3ncc4c(-c5ccc6ncccc6c5)c[nH]c4n3)ccn2)CC1 | 0.03 | 0.001 | 0.285 | 9.98 | – | Activity (Chondrocyte [2]): inactive; Activity (Chondrocyte [5]): inactive; Emax at 0.01 µM [7]: 73.4%
22 | COc1cncc(-c2ccc3[nH]nc(-c4nc5c(-c6cccc(F)c6)nccc5[nH]4)c3n2)c1 | 0.0206 | 0.046 | 0.12 | – | – | Emax at 0.02058 µM [8]: 60.4%
23 | CCNCc1cncc(-c2ccc3[nH]nc(-c4nc5c(-c6cc(F)cc(NCCN(C)C)c6)ccnc5[nH]4)c3n2)c1 | 0.0206 | 0.008 | > 10 | – | – | Emax at 0.02058 µM [8]: 149%
24 | CCCC(=O)Nc1cncc(-c2ccc3[nH]nc(-c4nc5c(-c6ccsc6)cncc5[nH]4)c3n2)c1 | 0.0206 | 0.046 | 3.6 | – | – | Emax at 0.02058 µM [8]: 58.4%
25 | CC(C)Oc1cncc(C(=O)Nc2c[nH]nc2C(=O)Nc2ccc(OC3CCN(C)CC3)nc2)c1 | 2.7 | 0.004 | 0.0903 | 0.0015 | 140 | –
26 | COc1cncc(-c2ccc3[nH]nc(-c4nc5c(-c6cccc(F)c6)ccnc5[nH]4)c3n2)c1 | – | 0.051 | – | – | – | Emax at 0.06173 µM [16]: 47%
27 | Cc1n[nH]c2cc(F)c(-c3cncc(O[C@H]4CCNC[C@@H]4F)n3)cc12 | – | 0.006 | 0.63 | – | – | EC50 [14]: 1.3 µM; Activity (Chondrocyte [10]): inactive; Activity (Chondrocyte [2]): inactive; EC50 [15]: 0.001 µM
28 | Oc1cncc(-c2ccc3[nH]nc(-c4nc5c(-c6cccc(F)c6)ccnc5[nH]4)c3n2)c1 | 0.00229 | 0.043 | 0.375 | – | – | Emax at 0.02058 µM [8]: 59.3%
29 | CC(C)C(=O)Nc1cncc(-c2ccc3[nH]nc(-c4nc5c(-c6cccnc6)ccnc5[nH]4)c3n2)c1 | – | 0.03 | > 10 | – | – | Emax at 0.06173 µM [16]: 26.1%
